Data reported in paper PMC8752738, “A propolis-derived small molecule ameliorates metabolic syndrome in obese mice by targeting the CREB/CRTC2 transcriptional complex” (Nature Communications, 2022).
“And” between values parts separate entries of the source, which are not always exact repeats. Equal values may be shown once.

What was measured:
[1] = target: T1, GST-CREB / HIS-CRTC2-S171A interaction (Homo sapiens, UniProt P16220); test: In vitro pull-down with purified GST-CREB and HIS-CRTC2-S171A; format: biochemical; details: for Relative HIS/GST in GST-pull down fraction: Fig 2d replicates
T1 construct: made in house; host or cells: E. coli
Description: To further confirm whether APC disrupts the protein association between CREB and CRTC2, we performed GST-pull-down assays in which GST-CREB beads were used to immunoprecipitated FLAG-tagged CRTC2 proteins that were expressed in HEK293T cells. As expected, APC attenuated the amounts of FLAG-CRTC2 proteins recovered by GST-CREB beads from HEK293T cell lysates (Fig. 2a). […] In contrast, APC had little effect on the association of GST-CREB with HA-P300 (Supplementary Fig. 2a), as well as the interaction between endogenous CRTC2 and CBP proteins (Fig. 2c). Moreover, the interactions of CREB and the isoforms CRTC1 and CRTC3 were also attenuated by APC in overexpression HEK293T cells (Supplementary Fig. 2b, c).
Fig. 2 APC blocks interaction between CREB and CRTC2. a Analysis of GST-CREB immunoprecipitated with overexpressed FLAG-CRTC2 from the lysates of HEK293T cells. APC (10 μM) was added to the culture media for 1 h and the following IP mixture. The relative gray density of FLAG in GST-pull-down fraction is shown as a bar graph (bottom). One of three independent experiments is presented (top, n = 3). Data are represented as mean ± SEM); P values were determined by one-way ANOVA followed Dunnett’s multiple comparisons test. b Analysis of HA-CRTC2 immunoprecipitated with endogenous CREB from primary hepatocyte lysates. APC (10 μM) was added to the culture media for 1-h before 30-min of stimulation with glucagon (Gluc, 100 nM) and the following IP mixture as indicated. Top panel presents one of three independent experiments, and the relative gray density of HA in CREB-IP-faction is shown as a bar graph (bottom, n = 3). Data are represented as mean ± SEM; P values were determined by one-way ANOVA followed Dunnett’s multiple comparisons test. c Immunoblotting analysis of endogenous CREB, CRTC2, and CBP interaction by an anti-CRTC2 antibody from the lysate of primary hepatocytes. APC (10 μM) was added to the culture media for 1-h before 30-min stimulation with glucagon. Related CREB and CBP normalized by CRTC2, respectively, in CRTC2-IP fractions. The top panel presents one of three independent experiments, and the relative gray density of CREB and CBP normalized to CRTC2 in the CRTC2-IP-faction is shown as a bar graph (bottom, n = 3). Data are represented as mean ± SEM; P values were determined by two-way ANOVA followed Bonferroni’s multiple comparisons test. d Immunoblotting analysis of protein GST-CREB recovered HIS-CRTC2-S171A proteins purified from E. coli. The addition of APC (5, 10, or 50 μM) in pull-down mixtures is indicated. […] Data are represented as mean ± SEM; P values were determined by one-way ANOVA followed Dunnett’s multiple comparisons test (compared with APC = 0).

[2] = Histological analysis of liver and adipose tissue; format: in vivo, mouse; details: DIO and db/db mice, 20 mg/kg, 5 weeks
Experimental: Fig. 5 APC improves hyperlipidemia of obese mice. DIO mice were continuously i.p. injected with control vehicle or APC with indicated doses (APC, 0, 10, and 20 mg/kg) or vehicle (Ctrl) one time daily for 5 weeks (n = 5–9). a Body-weight curves of these mice (left). Area under curve (AUC) analysis of curves is shown as a scatter chart at the right. […] Data are represented as mean ± SEM. *P < 0.05; **P < 0.01; P values were determined by one-way ANOVA followed Dunnett’s multiple comparisons test. The triglyceride (TG) contents in the serum (c) and liver (d) of these mice. The contents of (e) total cholesterol (TC), LDL cholesterol (LDL-C), and HDL cholesterol (HDL-C), (f) VLDL-C, and (g) nonesterified fatty acid (NEFA) in the serum of these mice. h The contents of hepatic NEFA and (i) glycerol in these mice, which were normalized by hepatic protein levels as determined by BCA assay. Data are represented as mean ± SEM (n = 5–6). *P < 0.05; **P < 0.01; P values were determined by one-way ANOVA followed Dunnett’s multiple comparisons test. j Histological analysis of liver and epididymis fat (WAT) from DIO mice treated with APC (20 mg/kg) or vehicle for 5 weeks. Tissues were stained with hematoxylin and eosin. Scale bars represent 100 μm. […]

T1 sequence (P16220 whole entry, stated change not applied): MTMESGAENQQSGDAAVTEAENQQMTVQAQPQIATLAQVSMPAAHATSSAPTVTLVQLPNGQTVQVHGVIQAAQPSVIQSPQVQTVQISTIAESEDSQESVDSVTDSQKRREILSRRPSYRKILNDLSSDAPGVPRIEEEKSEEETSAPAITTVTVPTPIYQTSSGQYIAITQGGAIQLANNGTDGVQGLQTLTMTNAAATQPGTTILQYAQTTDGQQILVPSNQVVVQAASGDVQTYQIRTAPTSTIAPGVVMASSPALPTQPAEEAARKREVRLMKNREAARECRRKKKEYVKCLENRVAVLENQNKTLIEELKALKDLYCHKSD

## CC(C)=CCc1cc(C=CC(=O)O)cc(CC=C(C)C)c1O [APC, 3,5-diprenyl-4-hydroxycinnamic acid]
[1]; APC 5 uM
  Relative HIS/GST in GST-pull down fraction: 0.8055 and 0.8618 and 0.7881
[1]; APC 10 uM
  Relative HIS/GST in GST-pull down fraction: 0.4842 and 0.3120 and 0.3223
[1]; APC 50 uM
  Relative HIS/GST in GST-pull down fraction: 0.1707 and 0.1125 and 0.1021
[1]; purified proteins, APC 5, 10, 50 μM, dose-dependent
  HIS-CRTC2-S171A recovered by GST-CREB: significantly diminished
[2]
  sizes of lipid droplets in liver and adipose tissues: remarkably reduced
